The text below walks through data of article PMC9329436, “Optimization of the 4-anilinoquin(az)oline scaffold as epidermal growth factor receptor (EGFR) inhibitors for chordoma utilizing a toxicology profiling assay platform” (Scientific Reports, 2022).

The structures appear in SMILES notation. Read-outs that look alike come from different tables or passages of the source.

Common to all, as to assay type: biochemical
In experiment [1] the target is 320 wild-type protein kinases (Homo sapiens, UniProt Q13705). As to conditions: ACV-R2B, singlicate. From the text: (§1) Table S4. Profiling of two compounds at two concentrations against 320 wild-type protein kinases; singlicate measurement; Residual activities (% of control).
Experiment [2] concerns the target 320 wild-type protein kinases (Homo sapiens, UniProt Q9UEW8). As to conditions: kinase STK39, singlicate.
Description: as §1

Experiment [3] addresses 320 wild-type protein kinases (Homo sapiens, UniProt Q9UPE1). As to conditions: kinase STK23, singlicate.
Description: as §1

The target in experiment [4] is 320 wild-type protein kinases (Homo sapiens, UniProt Q13557). As to conditions: CAMK2D, singlicate.
Description: as §1

Experiment [5] addresses T1, 320 wild-type protein kinases (Homo sapiens, UniProt P30530).
T1 sequence (P30530 26-894): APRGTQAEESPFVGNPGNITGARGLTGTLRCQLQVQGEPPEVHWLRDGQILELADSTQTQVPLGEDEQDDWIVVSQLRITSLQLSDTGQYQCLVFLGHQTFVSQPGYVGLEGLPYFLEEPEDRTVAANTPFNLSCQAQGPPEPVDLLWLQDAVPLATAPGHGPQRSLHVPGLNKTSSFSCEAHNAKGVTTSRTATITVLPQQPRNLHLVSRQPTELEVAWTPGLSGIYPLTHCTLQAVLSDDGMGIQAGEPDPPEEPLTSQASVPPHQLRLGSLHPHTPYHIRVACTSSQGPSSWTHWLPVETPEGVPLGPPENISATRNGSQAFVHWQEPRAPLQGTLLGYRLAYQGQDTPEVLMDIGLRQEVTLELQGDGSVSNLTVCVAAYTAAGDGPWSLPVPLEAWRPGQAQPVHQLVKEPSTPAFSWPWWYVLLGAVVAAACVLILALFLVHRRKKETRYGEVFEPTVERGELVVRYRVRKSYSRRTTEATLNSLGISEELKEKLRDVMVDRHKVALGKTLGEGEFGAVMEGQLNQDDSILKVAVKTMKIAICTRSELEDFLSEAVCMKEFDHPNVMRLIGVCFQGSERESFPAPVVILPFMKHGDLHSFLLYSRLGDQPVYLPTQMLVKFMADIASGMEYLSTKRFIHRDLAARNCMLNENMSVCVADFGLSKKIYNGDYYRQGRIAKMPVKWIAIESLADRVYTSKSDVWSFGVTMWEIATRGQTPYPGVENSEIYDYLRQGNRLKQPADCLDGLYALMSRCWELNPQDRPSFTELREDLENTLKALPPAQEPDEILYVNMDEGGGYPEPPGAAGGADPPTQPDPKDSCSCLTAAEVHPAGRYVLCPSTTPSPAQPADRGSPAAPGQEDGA
As to conditions: AXL, singlicate.
Description: as §1

In experiment [6] the target is 320 wild-type protein kinases (Homo sapiens, UniProt P11802). As to conditions: singlicate.
Description: as §1

Experiment [7] deals with 320 wild-type protein kinases (Homo sapiens, UniProt Q9P286). As to conditions: singlicate.
Description: as §1

The target of experiment [8] is T2, 320 wild-type protein kinases (Homo sapiens, UniProt Q9BZL6).
T2 sequence (Q9BZL6 1-878): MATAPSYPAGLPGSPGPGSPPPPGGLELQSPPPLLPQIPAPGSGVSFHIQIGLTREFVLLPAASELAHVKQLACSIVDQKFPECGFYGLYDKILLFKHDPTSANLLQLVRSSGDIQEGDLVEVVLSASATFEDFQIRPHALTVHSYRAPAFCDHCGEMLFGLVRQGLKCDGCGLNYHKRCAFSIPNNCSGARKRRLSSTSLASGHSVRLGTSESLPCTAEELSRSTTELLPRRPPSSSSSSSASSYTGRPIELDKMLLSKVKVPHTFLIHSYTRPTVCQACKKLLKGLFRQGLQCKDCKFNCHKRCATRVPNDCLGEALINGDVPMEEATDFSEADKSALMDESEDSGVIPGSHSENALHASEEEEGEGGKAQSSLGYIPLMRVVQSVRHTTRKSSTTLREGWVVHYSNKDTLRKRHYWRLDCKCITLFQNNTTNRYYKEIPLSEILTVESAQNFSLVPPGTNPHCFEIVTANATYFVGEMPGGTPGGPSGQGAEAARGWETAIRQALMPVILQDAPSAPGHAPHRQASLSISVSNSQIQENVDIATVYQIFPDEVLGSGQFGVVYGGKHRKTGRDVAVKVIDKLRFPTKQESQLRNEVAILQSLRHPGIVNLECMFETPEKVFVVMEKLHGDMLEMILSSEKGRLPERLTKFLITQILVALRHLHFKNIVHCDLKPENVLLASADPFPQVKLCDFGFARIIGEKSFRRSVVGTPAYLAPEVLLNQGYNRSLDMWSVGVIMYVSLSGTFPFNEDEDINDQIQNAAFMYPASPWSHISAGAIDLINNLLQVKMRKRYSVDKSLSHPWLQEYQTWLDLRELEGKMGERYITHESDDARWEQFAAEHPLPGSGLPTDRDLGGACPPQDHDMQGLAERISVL
As to conditions: singlicate.
Description: as §1

In experiment [9] the target is T3, 320 wild-type protein kinases (Homo sapiens, UniProt P52564, S207D/T211D).
T3 sequence (P52564 1-334 S207D/T211D): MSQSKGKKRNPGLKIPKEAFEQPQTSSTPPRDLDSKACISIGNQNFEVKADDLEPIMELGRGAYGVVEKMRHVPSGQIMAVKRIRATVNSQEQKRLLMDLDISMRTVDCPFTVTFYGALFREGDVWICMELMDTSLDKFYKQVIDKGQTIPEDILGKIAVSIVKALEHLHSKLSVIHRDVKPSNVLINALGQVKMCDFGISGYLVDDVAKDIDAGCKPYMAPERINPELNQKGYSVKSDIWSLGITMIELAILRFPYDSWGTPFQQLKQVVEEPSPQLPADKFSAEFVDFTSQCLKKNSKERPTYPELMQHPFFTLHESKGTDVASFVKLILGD
As to conditions: MKK6 S207D/T211D**, singlicate.
Description: as §1

Chain of 320 wild-type protein kinases (Homo sapiens, UniProt Q9UPE1) (Q9UPE1 whole entry): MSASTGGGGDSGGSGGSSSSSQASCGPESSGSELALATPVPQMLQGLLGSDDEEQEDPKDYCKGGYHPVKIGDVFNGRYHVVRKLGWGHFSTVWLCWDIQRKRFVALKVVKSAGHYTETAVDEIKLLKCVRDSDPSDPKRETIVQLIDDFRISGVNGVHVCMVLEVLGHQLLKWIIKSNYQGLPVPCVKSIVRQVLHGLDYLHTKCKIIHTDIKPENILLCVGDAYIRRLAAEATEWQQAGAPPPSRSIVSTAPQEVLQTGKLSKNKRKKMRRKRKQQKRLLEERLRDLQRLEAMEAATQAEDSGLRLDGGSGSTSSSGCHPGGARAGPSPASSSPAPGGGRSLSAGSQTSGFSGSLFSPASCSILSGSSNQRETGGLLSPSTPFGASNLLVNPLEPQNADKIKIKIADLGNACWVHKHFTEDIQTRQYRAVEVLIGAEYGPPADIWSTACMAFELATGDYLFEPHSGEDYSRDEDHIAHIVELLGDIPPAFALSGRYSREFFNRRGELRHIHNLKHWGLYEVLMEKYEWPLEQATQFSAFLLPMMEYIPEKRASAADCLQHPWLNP
Chain of 320 wild-type protein kinases (Homo sapiens, UniProt Q13557) (Q13557 whole entry): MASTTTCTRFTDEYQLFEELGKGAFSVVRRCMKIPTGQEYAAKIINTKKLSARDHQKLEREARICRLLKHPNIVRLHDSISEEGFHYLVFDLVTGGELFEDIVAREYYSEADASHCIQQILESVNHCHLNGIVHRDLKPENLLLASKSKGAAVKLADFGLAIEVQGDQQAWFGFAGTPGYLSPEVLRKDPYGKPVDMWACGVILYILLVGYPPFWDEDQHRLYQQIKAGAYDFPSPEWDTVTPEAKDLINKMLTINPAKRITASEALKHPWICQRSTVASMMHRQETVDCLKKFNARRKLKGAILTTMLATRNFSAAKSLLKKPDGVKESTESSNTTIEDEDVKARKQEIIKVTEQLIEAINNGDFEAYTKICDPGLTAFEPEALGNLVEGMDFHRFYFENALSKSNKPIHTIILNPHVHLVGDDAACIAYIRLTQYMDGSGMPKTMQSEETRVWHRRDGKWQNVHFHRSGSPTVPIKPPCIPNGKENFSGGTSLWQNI
Chain of 320 wild-type protein kinases (Homo sapiens, UniProt P11802) (P11802 whole entry): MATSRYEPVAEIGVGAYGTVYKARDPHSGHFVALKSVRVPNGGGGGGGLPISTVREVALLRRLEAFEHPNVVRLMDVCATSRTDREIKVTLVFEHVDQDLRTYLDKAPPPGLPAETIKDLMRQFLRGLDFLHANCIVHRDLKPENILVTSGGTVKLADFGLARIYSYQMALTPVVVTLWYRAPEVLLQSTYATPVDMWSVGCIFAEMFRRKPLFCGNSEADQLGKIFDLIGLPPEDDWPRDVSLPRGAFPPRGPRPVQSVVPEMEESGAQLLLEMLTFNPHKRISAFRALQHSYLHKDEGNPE
Chain of 320 wild-type protein kinases (Homo sapiens, UniProt Q13705) (Q13705 19-512): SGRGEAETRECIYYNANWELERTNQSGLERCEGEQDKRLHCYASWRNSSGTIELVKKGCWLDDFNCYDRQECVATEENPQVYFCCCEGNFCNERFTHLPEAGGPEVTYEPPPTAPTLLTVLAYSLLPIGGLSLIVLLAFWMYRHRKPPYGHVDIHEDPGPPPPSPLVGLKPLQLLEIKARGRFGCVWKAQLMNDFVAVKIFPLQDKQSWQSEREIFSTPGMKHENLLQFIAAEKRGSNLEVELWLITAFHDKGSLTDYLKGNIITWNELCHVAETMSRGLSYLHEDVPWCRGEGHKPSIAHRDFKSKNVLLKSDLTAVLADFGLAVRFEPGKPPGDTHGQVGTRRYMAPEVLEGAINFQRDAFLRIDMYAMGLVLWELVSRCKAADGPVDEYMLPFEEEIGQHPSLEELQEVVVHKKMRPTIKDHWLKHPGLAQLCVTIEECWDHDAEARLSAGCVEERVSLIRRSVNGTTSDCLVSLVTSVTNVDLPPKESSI
Chain of 320 wild-type protein kinases (Homo sapiens, UniProt Q9P286) (Q9P286 whole entry): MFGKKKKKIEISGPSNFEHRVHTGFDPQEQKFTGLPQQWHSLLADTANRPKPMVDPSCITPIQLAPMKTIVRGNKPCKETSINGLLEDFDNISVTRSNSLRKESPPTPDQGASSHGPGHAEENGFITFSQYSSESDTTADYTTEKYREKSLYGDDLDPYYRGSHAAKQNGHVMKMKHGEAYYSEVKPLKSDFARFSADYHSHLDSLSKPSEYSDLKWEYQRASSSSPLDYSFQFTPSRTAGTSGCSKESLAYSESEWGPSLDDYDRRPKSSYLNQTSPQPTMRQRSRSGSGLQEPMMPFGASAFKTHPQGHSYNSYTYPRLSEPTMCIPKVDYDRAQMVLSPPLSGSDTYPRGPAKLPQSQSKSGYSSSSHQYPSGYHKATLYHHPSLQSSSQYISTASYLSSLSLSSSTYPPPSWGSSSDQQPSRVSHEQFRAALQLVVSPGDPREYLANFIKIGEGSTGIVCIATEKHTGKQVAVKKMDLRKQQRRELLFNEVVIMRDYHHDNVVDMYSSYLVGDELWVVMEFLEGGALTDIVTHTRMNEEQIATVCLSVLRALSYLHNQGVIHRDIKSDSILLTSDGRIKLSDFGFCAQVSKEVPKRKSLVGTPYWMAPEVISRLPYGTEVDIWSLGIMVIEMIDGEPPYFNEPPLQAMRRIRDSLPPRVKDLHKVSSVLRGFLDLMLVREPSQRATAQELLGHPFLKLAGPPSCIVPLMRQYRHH

`C#Cc1cc(Nc2ncnc3cc(OC)c(OC)cc23)ccc1Cl` [Compound 45]: the Residual activity in [1] (1.0E-06 M) is 85 % of control; in experiment [1] (1.0E-07 M) it was 83 % of control; in experiment [4] (1.0E-06 M), 95 % of control; in experiment [4] (1.0E-07 M), 91 % of control; in [5] (1.0E-06 M) it was 80 % of control; in experiment [5] (1.0E-07 M), 103 % of control. Besides, the Residual activity in [6] (CDK4/CycD1, 1.0E-06 M) is reported as 95 % of control; in experiment [6] (CDK4/CycD1, 1.0E-07 M) it was 87 % of control; in experiment [6] (CDK4/CycD3, 1.0E-06 M), 87 % of control; in [6] (CDK4/CycD3, 1.0E-07 M), 94 % of control; in experiment [7] (PAK7, 1.0E-06 M), 91 % of control; in experiment [7] (PAK7, 1.0E-07 M), 99 % of control. Besides, the Residual activity is 73 % of control in experiment [8] (PRKD2, 1.0E-06 M); 80 % of control in [8] (PRKD2, 1.0E-07 M); 90 % of control in experiment [9] (1.0E-06 M); 95 % of control in [9] (1.0E-07 M). Besides, the figures for the “Residual activity, STK39” value in [2] (assay conc. 1.0E-06 M) and in experiment [2] (assay conc. 1.0E-07 M) were 91 % of control and 102 % of control, respectively. In addition, the “Residual activity, STK23” value in experiment [3] (assay conc. 1.0E-06 M) is recorded as 87 % of control; in experiment [3] (assay conc. 1.0E-07 M), 97 % of control.
Turning to `C#Cc1cc(Nc2ncnc3cc(I)ccc23)ccc1Cl` [Compound 41], the Residual activity in experiment [1] (1.0E-06 M) is reported as 84 % of control; in experiment [1] (1.0E-07 M), 91 % of control; in [4] (1.0E-06 M) it was 89 % of control; in experiment [4] (1.0E-07 M), 103 % of control; in experiment [5] (1.0E-06 M), 97 % of control; in experiment [5] (1.0E-07 M), 116 % of control. Besides, the Residual activity in [6] (CDK4/CycD1, 1.0E-06 M) was 79 % of control; in experiment [6] (CDK4/CycD1, 1.0E-07 M), 75 % of control; in experiment [6] (CDK4/CycD3, 1.0E-06 M), 87 % of control; in [6] (CDK4/CycD3, 1.0E-07 M), 94 % of control; in experiment [7] (PAK7, 1.0E-06 M), 81 % of control; in experiment [7] (PAK7, 1.0E-07 M), 108 % of control. The Residual activity in [8] (PRKD2, 1.0E-06 M) was 84 % of control; in experiment [8] (PRKD2, 1.0E-07 M), 97 % of control; in experiment [9] (1.0E-06 M), 98 % of control; in [9] (1.0E-07 M), 90 % of control. For the same molecule, the entries for the “Residual activity, STK39” value in experiment [2] (assay conc. 1.0E-06 M) and in experiment [2] (assay conc. 1.0E-07 M) were 98 % of control and 106 % of control, respectively. Also, the “Residual activity, STK23” value is reported as 94 % of control in [3] (assay conc. 1.0E-06 M) and 93 % of control in experiment [3] (assay conc. 1.0E-07 M).
